Data reported in patent publication US20120083473A1, “TREATMENT OF CONDITIONS BY TOLL-LIKE RECEPTOR MODULATORS” (priority 2010, published 2012).

Columns and labels:
[1] = system: murine peritoneal macrophages (PEC); experiment: Secretion of M1 and M2 gene products by TMX-tolerant PEC (ELISA); assay type: cell-based, mice
Experimental: Based on the results of the gene expression analysis, performed by Real-Time PCR, selected gene products are validated at protein level, either by cytofluorimetry (surface molecules) or ELISA (secreted products).
The secretion of selected M1 and M2 gene products by TMX-tolerant murine peritoneal macrophages (PEC) was evaluated.
Cell Culture and treatments. Peritoneal exudate cells (PEC) were harvested from mice injected with 1 ml of 3% (w/v) thioglycollate medium (Difco, Detroit, Mich.) 4 days prior to isolation. PECs were incubated in RPMI 1640 medium, containing 10% fetal bovine serum, 2 mM glutamine and 100 U/ml of penicillin-streptomycin. The concentration for the different treatments were as follows: LPS (100 ng/ml) (Lipopolysaccharide from Salmonella Abortus Equi S-form, Alexis), CpG (1 μg/ml), Pam3CSK (2 μg/ml), Poly I:C (10 μg/ml), Loxorubine (100 μM), flagellin (100 ng/ml) IL-1β (20 ng/ml), TNF (20 ng/ml), IL-10 (20 ng/ml) (Peprotech), IFNγ (200 U/ml) (Peprotech). To induce TMX tolerance, cells were incubated in the presence of TMX (10 μM or 1 μM) for 20 hrs, washed and maintained in RPMI medium for 2 hrs and then re-challenged with TMX (10 μM) for 4 hrs. To induce TMX-tolerization (T/M) cells were treated with TMX for 20 hrs, washed and then maintained in medium for additional 6 hours, without TMX re-challenge. […]

[2] = Intravenous acute toxicity in mice; assay type: in vivo; conditions: i.v.
[3] = system: human monocytes (Mo); experiment: M1/M2 gene expression in human monocytes (Real-Time PCR); assay type: cell-based
Experimental: To evaluate the effects of TMX on human cell activation, monocytes were isolated from buffy coats obtained from four different healthy donors. With respect to macrophage tolerance, cells were treated with Compound 2 (10 microM) up to 20 hours and then re-challenged with agonists/ligands of different TLRs (TLR2, TLR4, TLR5, TLR9, TLR7, etc. . . . ), including the TLR7 unconjugated ligand 1V209 (free pharmacophore) at a concentration of 10 microM.
Cell Culture and treatments. Monocytes (Mo) were obtained from buffycoats collected from healthy donors as previously described (Porta C et al, PNAS 2009). Cells were incubated in RPMI 1640 medium, containing 10% fetal bovine serum, 2 mM glutamine and 100 U/ml of penicillin-streptomycin. The concentrations for the different treatments were as follows: LPS (100 ng/ml) (Lipopolysaccharide from Salmonella Abortus Equi S-form, Alexis), CpG (1 microg/ml), Pam3CSK (2 microg/ml), Poly I:C (10 microg/ml), Loxorubine (100 microM), flagellin (100 ng/ml). To induce TMX tolerance, cells were incubated in the presence of TMX (10 microM) for 20 hrs, washed and maintained in RPMI medium for 2 hrs and then re-challenged with TMX (10 microM) for 4 hrs. To induce TMX-tolerization (T/M) cells were treated with TMX for 20 hrs, washed and then maintained in medium for additional 6 hours, without TMX re-challenge. To induce M1-activation cells were incubated in medium for 20 hrs, washed, left in medium for 2 hrs and finally stimulated with TMX (10 microM) for 4 hrs. Control cells (M/M) were cultured in medium for the entire period of the experiment. For gene expression analysis, total RNA was extracted from TMX treated and untreated cells with trizol (Invitrogen), according to the manufacturer's instructions. To analyze cytokines and chemokines production supernatants were collected 24 hrs after the second challenge with TMX.
Real-Time PCR. Total RNA was purified as previously described. Briefly, reverse transcription from 1 microgram of RNA was performed using a cDNA Archive kit (Applied Biosystem, NJ, USA). Real time PCR was performed using Power Syber Green PCR Master Mix (Applied Biosystem, NJ, USA) and detected by 7900HT Fast Real-Time System (Applied Biosystem, NJ, USA). Data were processed using the SDS2.2.2 software (Applied Biosystem, NJ, USA). Results were normalized to the expression of the housekeeping gene 8-actin and then expressed as folds of upregulation, with respect to the control cell population.

COCCOc1nc(N)c2nc(O)n(Cc3ccc(C(=O)NCCOCCOCCOCCOCCOCCOCCn4cc(CCC(=O)O)nn4)cc3)c2n1 [Compound 2]
IL-1p and IL-6 in the supernatant of TMX-tolerant macrophages ([1]; ELISA): increased levels | state of tolerance: M1 and M2 cytokines production ([1]; only 10 microM TMX, ELISA of supernatants): low M1 and high M2 cytokines production | dose up to which no toxic clinical signs were produced [2]: up to 1000 mg/kg | IL-10 expression in tolerant Mo as compared to activated Mo [3]: inhibited | M1 markers CXCL9, IFNbeta, iNOS and M2 cytokine TGFbeta [3]: No significant modulation | tolerizing and polarizing activity on human cells as compared to murine cells [3]: partial tolerizing and polarizing activity | M1 (TNF-alpha, IL-1-beta IL-6, IL-12, CXCL10) gene expression in state of tolerance ([3]; 10 microM, 20 hours, Mo from 3 out of 4 healthy donors): low | M1 markers TNF-alpha, IL12-p40 IL-1 IL6 CXCL10 and IFNbeta ([3]; TMX pretreatment): down-regulated | M2 genes CCL17, CCL18, CCL22 in tolerant versus activated Mo ([3]; few exceptions (CCL18, CCL22 in single donors)): further induced | M2 signature chemokines CCL17, CCL18 and CCL22 ([3]; presence of TMX compound): increased
